Measured values reported in ChEMBL document CHEMBL5365467 (J Med Chem, 2023).
Active and inactive are the calls of the source. The rule behind the calls is not given here.

Legend:
LNCaP = assay: Growth inhibition in human LNCaP cells assessed as reduction in cell viability
VCaP [1] = assay: Downregulation of PLOD2 protein expression in human VCaP cells at 10 uM measured for 24 hrs by proteomics analysis; type: functional, cell-based
VCaP [2] = assay: Downregulation of PCLAF protein expression in human VCaP cells at 10 uM measured for 24 hrs by proteomics analysis; type: functional, cell-based
VCaP [3] = assay: Downregulation of HAUS8 protein expression in human VCaP cells at 10 uM measured for 24 hrs by proteomics analysis; type: functional, cell-based
[4] = target: Protein cereblon/Androgen receptor (Homo sapiens, UniProt P10275+Q96SW2); assay: PROTAC activity at AR/CRBN in AR-positive human VCaP cells assessed as induction of androgen receptor degradation measured at 24 hrs; type: cell-based
Sequence of Protein cereblon/Androgen receptor (Q96SW2 whole entry, one chain of several): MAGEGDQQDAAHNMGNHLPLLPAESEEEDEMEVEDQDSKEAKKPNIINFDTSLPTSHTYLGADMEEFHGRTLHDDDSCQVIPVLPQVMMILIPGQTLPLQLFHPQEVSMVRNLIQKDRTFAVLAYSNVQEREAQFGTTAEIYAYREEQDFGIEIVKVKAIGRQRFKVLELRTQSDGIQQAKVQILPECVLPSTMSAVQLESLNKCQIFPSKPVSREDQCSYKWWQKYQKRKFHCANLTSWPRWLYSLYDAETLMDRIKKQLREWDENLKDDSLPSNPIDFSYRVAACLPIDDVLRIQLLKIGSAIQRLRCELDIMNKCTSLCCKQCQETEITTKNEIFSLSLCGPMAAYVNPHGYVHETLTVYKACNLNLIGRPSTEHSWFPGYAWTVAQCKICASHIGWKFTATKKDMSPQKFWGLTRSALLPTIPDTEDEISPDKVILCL

[5] = Volume of distribution at steady state in Sprague-Dawley rat at 1 mg/kg, iv measured upto 24 hrs by LC-MS/MS analysis; type: ADME, organism-based; conditions: in vivo, read-out: Vdss
[6] = Clearance in Sprague-Dawley rat at 1 mg/kg, iv measured upto 24 hrs by LC-MS/MS analysis; type: ADME, organism-based; conditions: in vivo
[7] = AUC (0 to t) in Sprague-Dawley rat at 3 mg/kg, po measured upto 24 hrs by LC-MS/MS analysis; type: ADME, organism-based; set-up: dose 3 mg/kg, time < 24 hrs, route po; conditions: in vivo
[8] = Half life in Sprague-Dawley rat at 3 mg/kg, po measured upto 24 hrs by LC-MS/MS analysis; type: ADME, organism-based; conditions: in vivo
Androgen receptor = target: T1, Androgen receptor (Homo sapiens, UniProt P10275)
T1 sequence (P10275 whole entry): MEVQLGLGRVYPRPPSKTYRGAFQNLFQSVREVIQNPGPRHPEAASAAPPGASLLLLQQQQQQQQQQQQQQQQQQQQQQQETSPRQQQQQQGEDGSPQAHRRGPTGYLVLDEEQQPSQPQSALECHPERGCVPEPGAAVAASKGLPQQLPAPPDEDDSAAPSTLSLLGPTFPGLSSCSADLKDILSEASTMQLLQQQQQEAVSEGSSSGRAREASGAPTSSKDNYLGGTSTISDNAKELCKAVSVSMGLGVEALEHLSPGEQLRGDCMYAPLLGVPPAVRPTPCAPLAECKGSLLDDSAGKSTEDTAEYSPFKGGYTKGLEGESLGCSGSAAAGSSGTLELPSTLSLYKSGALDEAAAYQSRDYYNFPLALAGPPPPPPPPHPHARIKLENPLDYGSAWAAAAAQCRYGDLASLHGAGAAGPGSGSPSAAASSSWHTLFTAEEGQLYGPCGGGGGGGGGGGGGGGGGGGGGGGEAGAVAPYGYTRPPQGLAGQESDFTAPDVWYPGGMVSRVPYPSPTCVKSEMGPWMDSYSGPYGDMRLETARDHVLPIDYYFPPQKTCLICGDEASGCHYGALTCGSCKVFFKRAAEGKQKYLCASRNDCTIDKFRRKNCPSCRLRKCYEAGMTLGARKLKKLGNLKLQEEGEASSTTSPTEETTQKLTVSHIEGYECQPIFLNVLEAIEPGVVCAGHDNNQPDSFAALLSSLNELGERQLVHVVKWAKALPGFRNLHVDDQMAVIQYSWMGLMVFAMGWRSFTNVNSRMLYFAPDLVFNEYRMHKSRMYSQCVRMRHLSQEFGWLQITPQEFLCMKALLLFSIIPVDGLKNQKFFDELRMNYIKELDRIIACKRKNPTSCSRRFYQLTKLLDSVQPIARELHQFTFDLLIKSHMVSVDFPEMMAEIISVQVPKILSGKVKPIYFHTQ

[9] = Half life in Sprague-Dawley rat at 1 mg/kg, iv measured upto 24 hrs by LC-MS/MS analysis; type: ADME, organism-based; conditions: in vivo
[10] = Cmax in Sprague-Dawley rat at 3 mg/kg, po measured upto 24 hrs by LC-MS/MS analysis; type: ADME, organism-based; set-up: dose 3 mg/kg, time < 24 hrs, route po; conditions: in vivo
[11] = Oral bioavailability in Sprague-Dawley rat at 3 mg/kg measured upto 24 hrs by LC-MS/MS analysis; type: ADME, organism-based; conditions: in vivo
[12] = AUC (0 to t) in Sprague-Dawley rat at 1 mg/kg, iv measured upto 24 hrs by LC-MS/MS analysis; type: ADME, organism-based; set-up: dose 1 mg/kg, time < 24 hrs, route iv; conditions: in vivo
VCaP [13] = assay: Growth inhibition in human VCaP cells
VCaP [14] = assay: Antitumor activity against human VCaP cells xenografted in CB17-SCID mouse assessed as tumor growth inhibition at 10 mg/kg, po administered for 21 days; type: functional; conditions: 504 h, time 21 day, read-out: TGI

SMILES	IC50 (LNCaP) [nM]	Activity (VCaP [1])	Activity (VCaP [2])	Activity (VCaP [3])	DC50 [4]	Vd [5] [L/kg]	clearance [6] [mL/min/kg]	AUC(0-t) at 24 h [7] [ng·h/mL]	half-life [8] [h]	IC50 (Androgen receptor) [nM]	half-life [9] [h]	Cmax [10] [ng/mL]	bioavailability [11] [%]	AUC(0-t) at 24 h [12] [ng·h/mL]	IC50 (VCaP [13]) [nM]	inhibition in vivo at 10 mg/kg (VCaP [14]) [%]
CNC(=O)c1ccc(N2C(=S)N(c3ccc(C#N)c(C(F)(F)F)c3)C(=O)C2(C)C)cc1F [ENZALUTAMIDE]	213	–	–	–	–	–	–	–	–	–	–	–	–	–	–	–
C[C@H]1CC2(CCN(c3ccc(C(=O)N4CCN(C)CC4)cc3)CC2)CN1c1ccc(C#N)c(Cl)c1	–	inactive	inactive	inactive	Not Active	–	–	–	–	–	–	–	–	–	–	–
CN(c1ccc(C#N)c(Cl)c1)[C@H]1CC[C@H](NC(=O)c2ccc(N3CCN(C4CN(c5ccc6c(c5)C(=O)N(C5CCC(=O)NC5=O)C6=O)C4)CC3)cc2)CC1 (stereo not given in full)	–	–	–	–	–	5.3	12.5	535	6.9	15	5.5	57	13	1300	–	–
N#Cc1ccc(O[C@H]2CC[C@H](NC(=O)c3ccc(N4CCC(CN5CCN(c6cc7c(cc6F)C(=O)N(C6CCC(=O)NC6=O)C7=O)CC5)CC4)nn3)CC2)cc1Cl (stereo not given in full) [BAVDEGALUTAMIDE]	18.5	–	–	–	–	4.6	6	3600	27.1	–	12	280	52	2270	16.2	47
